Measurements published in patent US12564580B2, “Mitochondria-targeted isoketal/isolevuglandin scavengers and uses thereof” (Vanderbilt University, priority 2020, dated 2026).

Columns and labels:
[1] = Mass spectrometric analysis of mitochondria from mice given mito2HOBA in drinking water; assay type: in vivo
Source text: Mito2HOBA is a water-soluble compound which can be supplied in the media and provided to animals in the drinking water.

[2] = tested on: human aortic endothelial cells (HAEC); test: Cardiolipin oxidation in human aortic endothelial cells stimulated with angiotensin II plus TNFα (LC/MS); assay type: cell-based; conditions: 50 nM
Procedure: FIGS. 9A and B show the effect of mito2HOBA on mitochondrial superoxide and cardiolipin oxidation in human aortic endothelial cells induced by angiotensin II plus TNFα. (A) Mitochondrial superoxide was measured by HPLC analysis of mitoSOX-superoxide specific product, mito-2-hydroxyethidium (Mito-2OH-Et+). […] (B) Cardiolipin oxidation induced by Angiotensin II+TNFα measured my LC/MS. […] Data are mean±SEM. *P<0.01 vs Control, **P<0.01 vs Angiotensin II+TNFα (n=4).
Cardiolipin oxidation in human aortic endothelial cells was measured by Liquid Chromatography-Mass Spectrometry (LC/MS) as described previously.^44 The extracted lipid fraction was separated online by UPLC using a Waters Acquity UPLC system (Waters Corp., Milford, MA). Mass Spectrometry analysis was performed on a Thermo Quantum Ultra triple quadrupole mass spectrometer (Thermo Scientific Inc., San Jose, CA, USA).
Human aortic endothelial cells (HAEC) were purchased from Lonza (Chicago, IL) and cultured in EGM-2 medium supplemented with 2% FBS but without antibiotics. On the day before the study, the FBS concentration was reduced to 1%.

[3] = tested on: mitochondrial isoLG-Lysyl-Lactam protein adducts; test: isoLG-Lysyl-Lactam adducts in kidney mitochondria by LC/MS/MS; assay type: in vivo, mouse; conditions: Ang II-infused mice, mito2HOBA 0.1 g/L
Source text: FIGS. 10A-D show the effect of mito2HOBA on angiotensin II-induced hypertension and accumulation of mitochondrial isoLGs protein adducts. (A) Blood pressure tail-cuff measurements in male Sham or angiotensin II-infused mice supplied with mito2HOBA in drinking water (0.1 g/L) or equimolar amount of untargeted analog 2HOBA (0.17 mmol/L). (B) Telemetry studies of blood pressure in angiotensin II-infused mice supplied with mito2HOBA or plain water as a vehicle. (C) Representative LC/MS/MS chromatograms of isoLG-Lysyl-Lactam adduct; (D) isoLG-Lys-Lactam levels in kidney mitochondria isolated from Sham or angiotensin II-infused mice supplied with mito2HOBA. Results are mean±SEM. *P<0.01 vs Sham, **P<0.01 vs Ang II (n=8).
C57B1/6J mice were sacrificed by carbon dioxide and kidneys removed, cleaned from fat tissue and placed in the ice-slurry cold isolation medium. […] Mitochondrial protein concentration was measured by Bradford method.
IsoLG-Lysyl-Lactam adducts were measured in mitochondria isolated from the kidneys of sham or angiotensin II-infused mice using Mass Spectrometry. […] A [^13C6] internal standard was added and the isoLG-lysyl adducts were purified by solid phase extraction and HPLC before being quantified by Liquid Chromatography-tandem Mass Spectrometry assay (LC/ESI/MS/MS) using isotopic dilution as described previously.

[4] = tested on: aortic mitochondrial proteins (SOD2, CypD, NDUFS1); test: Western blot analysis of mitochondrial acetylation and isoLG adducts in aortas of angiotensin II-infused mice; assay type: in vivo, mouse
Source text: FIGS. 11A-D show Western blot analysis of mitochondrial acetylation in aortas isolated from Sham and angiotensin II-infused mice treated with mito2HOBA. (A) Typical Western blots isoLG-protein adducts (D11 ab), Sirt3, Acetyl-Lysine, SOD2-K68-Acetylation, CypD Acetylation, isoLG adduct with complex I NDUFS1 75 KDa subunit and mitochondrial complex I; (B) Sirt3 levels; (C) mitochondrial protein lysine acetylation; (D) SOD2-K68-Acetyl levels; and (E) CypD-Acetyl levels. Mice supplied with mito2HOBA (m2H) in drinking water (0.1 g/L) and angiotensin II (osmotic pump, 0.7 mg/kg/day) for 14 days. Data were normalized by Complex I levels (Sham is 100%). Results are mean±SEM (n=5). *P<0.01 vs Sham, **P<0.01 vs angiotensin II (Ang II).
Dihydroethidium (DHE) and MitoSOX superoxide probes were supplied by Invitrogen (Grand Island, NY). Sirt3 (54905) antibodies were from Cell Signaling. Acetyl-K68-SOD2 (ab137037), complex I NDUFS1 75 kDa subunit (ab22094) and CypD (ab110324) and GAPDH (ab8245) antibodies were from Abcam. SOD2 (sc30080) antibodies were obtained from Santa Cruz Biotechnology. Acetyl-lysine antibodies (ab3839) were provided by Millipore-Sigma. D11, an isoLG-lysyl adducts-specific scFv antibody, has been previously characterized. All antibodies were used at 1000-fold dilution. […] All other reagents were obtained from Sigma (St Louis, MO).

[5] = tested on: aortic superoxide; test: Aortic superoxide by HPLC (mitoSOX, DHE) in angiotensin II-infused mice; assay type: in vivo, mouse
Procedure: FIGS. 12A-D show the effect of mito2HOBA supplementation on mitochondrial superoxide (A), vascular superoxide (B), endothelial nitric oxide (C) and endothelial-dependent relaxation (D) in angiotensin II-infused mice. Mitochondrial and vascular O2⋅ was measured by mitochondria-targeted superoxide probe mitoSOX (1 μM) or untargeted superoxide probe DHE (50 μM) using HPLC.46 Endothelial nitric oxide was analyzed by NO spin trap Fe(DETC)2 and ESR.47 C57B1/6J mice were infused with Ang II and mito2HOBA was provided in the drinking water (0.1 g/L). […] Results are mean±SEM. *P<0.01 vs Sham, **P<0.01 vs Ang II (n=6).
Mouse aortic segments were loaded with DHE (50 μM) or mitochondria-targeted mitoSOX (1 μM) in KHB buffer by 30-minute incubation in a tissue culture incubator at 37° C. […] The tissue homogenate was passed through a 0.22 μm syringe filter and methanol filtrates were analyzed by HPLC according to previously published protocols. The superoxide specific product 2-hydroxyethidium was detected using a C-18 reverse-phase column (Nucleosil 250 to 4.5 mm) and a mobile phase containing 0.1% trifluoroacetic acid and an acetonitrile gradient (from 37% to 47%) at a flow rate of 0.5 ml/min. 2-Hydroxyethidium was quantified by fluorescence detector using an emission wavelength of 580 nm and an excitation of 480 nm as described previously.

[6] = tested on: complex I/complex II; conditions: kidney mitochondria after LPS treatment, mito2HOBA supplementation
Procedure: Three months old C57BL/6J mice (25-28 g) were supplemented with mito2HOBA (drinking water, 0.1 g/L) for 72 hours prior to LPS injection (25 μg/g). Complex I/Complex II activity ratio is expressed as a % compared to Control (100%). […] Data are mean±STD *P<0.01 vs LPS (n=6), *P<0.01 vs LPS (n=10).
Forty C57BL/6J 3-month old mice were equally divided in four groups: Sham (Control), LPS-injected mice (LPS), mice supplemented with mito2HOBA (0.1 g/Liter) in the drinking water (mito2HOBA), and LPS-injected mice pretreated with mito2HOBA in the drinking water (LPS+mito2HOBA). […]
Mitochondrial complex I and complex II activities were evaluated after 24 hours of LPS injection as described above. […]
Respiration rates were measured using Fluorescence Lifetime Micro Oxygen Monitoring System (Instech Laboratories, Inc.). […] OXPHOS specific enzyme activities in submitochondrial particles (SMP) were measured using a Varian Cary 300 Bio UV/Vis spectrophotometer with temperature controlling cell holder. […] Complex I activity was monitored in triplicate samples as the reduction of 10 μM decylubiquinone at 272 nm by 15 μg of mitochondrial protein with 40 μM NADH. […] Complex II activity was measured by monitoring the absorbance at 600 nm during the oxidation of 50 μM DCPIP as artificial electron acceptor by 65 μM ubiquinone in presence of 2 mM KCN and 2 μg/ml rotenone and antimycin A.

[7] = kidney and heart mitochondria, drinking water 0.1 g/L for 5-days

NCc1ccc(OCCCC[P+](c2ccccc2)(c2ccccc2)c2ccccc2)cc1O [mito2HOBA]
level in the mitochondrial fraction [1, 7]: μM levels
share accumulated in the mitochondrial fraction [1, 7]: 80%
accumulation in the mitochondria of multiple organs ([1]; kidney, heart and liver): robustly accumulated
cardiolipin oxidation [2]: inhibited
isoLG-Lysyl-Lactam adducts formation in kidney mitochondria [3]: abolished
SOD2 acetylation in aortas ([4]; % compared to control mice, Ang II plus mito2HOBA): 147%
CypD acetylation in aortas ([4]; % compared to control, Ang II plus mito2HOBA): 156%
hyperacetylation of mitochondrial proteins in aortas ([4]; Ang II 14 days, mito2HOBA 0.1 g/L (Ang II alone 420%)): normalized
isoLG-complex I NDUFS1 subunit adduct levels ([4]; Ang II plus mito2HOBA): reduced
mitochondrial isoLG adducts in aortic mitochondria ([4]; Ang II plus mito2HOBA): inhibited formation
aortic cellular superoxide ([5]; DHE, % compared to Sham control, Ang II plus mito2HOBA (Ang II alone 217%)): 152%
increase in aortic mitochondrial superoxide ([5]; mitoSOX, Ang II plus mito2HOBA): completely prevented
complex I/complex II activity ratio [6]: completely preserved
